Counter-ions that a name gives are not always drawn.
How the values were obtained:
[1] = target: E. coli. W3310 β-lactamase (TEM2) (Escherichia coli, UniProt P62593, Q37K); details: read-out: IC50 (nM) E. Coli WC3310; 10 minute incubation of enzyme and inhibitor; nitrocefin substrate
[2] = target: E. cloacae SC 12368 β-lactamase (Enterobacter cloacae, UniProt P05364); type: biochemical; details: 10 minute incubation of enzyme and inhibitor; nitrocefin substrate; read-out: IC50 (nM) E. cloacea SC12368
Protocol: (§1) The IC50 value of each compound was determined as follows. Following a 10 minute incubation of a dilute solution of enzyme (2.56 nm) and inhibitor (<0.64 mM), a […] of this incubation mixture was then further diluted into 1 mL nitrocefin solution, and the rate of hydrolysis was measured during a 1 minute period by monitoring the absorbance of nitrocefin as a function of time.

[3] = target: Class C β-lactamase of Enterobacter cloacae P99 (Enterobacter cloacae, UniProt P05364); type: biochemical; details: for IC50: 10 minute incubation of enzyme and inhibitor, nitrocefin substrate, read-out: IC50 (nM) E. cloacea P99
Protocol: as §1

## CON(C)C(=O)/C=C1/C(=O)N2C(C(=O)O)=C(COC(C)=O)CSC12 (stereo not shown) [Compound 6k, Sodium of salt of 7-[(Z)-N-methoxy-N-methylamino-carbonylmethylene] cephlosporanic acid]
[1]
  IC50: > 20000 nM
[2]
  IC50: > 20000 nM
[3]
  IC50: > 20000 nM

## CC(=O)OCC1=C(C(=O)O)N2C(=O)/C(=C/c3ccccc3)C2S(=O)(=O)C1 (stereo not shown) [Compound 7d, Sodium salt of 7-[(Z)-benzylidene] cephalosporanic acid sulfone]
[1]
  IC50: > 20000 nM
[2]
  IC50: 6800 nM
[3]
  IC50: 6250 nM

## Sodium salt of 7-[(Z)-t-butoxymethylene] cephalosporanic acid sulfone [Compound 7g]
[2]
  IC50: 5900 nM
[3]
  IC50: 7800 nM

## CC(=O)OCC1=C(C(=O)O)N2C(=O)/C(=C/C(=O)OC(C)(C)C)C2SC1 (stereo not shown) [Compound 6g, Sodium salt of 7-[(Z)-t-butoxycarbonylmethylene] cephlosporanic acid]
[1]
  IC50: > 20000 nM
[2]
  IC50: > 20000 nM
[3]
  IC50: 2500 nM

## CC(=O)OCC1=C(C(=O)O)N2C(=O)/C(=C\Br)C2S(=O)(=O)C1 (stereo not shown) [Compound 7l, Sodium salt of 7-(E)-[bromomethylene] cephalosporanic acid sulfone]
[1]
  IC50: > 20000 nM
[2]
  IC50: > 20000 nM
[3]
  IC50: > 20000 nM

## CC(=O)/C=C1/C(=O)N2C(C(=O)O)=C(COC(C)=O)CSC12 (stereo not shown) [Compound 6h, Sodium salt of 7-[(Z)-acetylmethylene] cephlosporanic acid]
[1]
  IC50: > 20000 nM
[2]
  IC50: > 20000 nM
[3]
  IC50: > 20000 nM

## CC(=O)OCC1=C(C(=O)O)N2C(=O)/C(=C/C(C)(C)C)C2SC1 (stereo not shown) [Compound 6m, Sodium salt of 7-[(Z)-t-butylmethylene] cephalosporanic acid]
[1]
  IC50: > 20000 nM
[2]
  IC50: > 20000 nM
[3]
  IC50: > 20000 nM

## CC(=O)OCC1=C(C(=O)O)N2C(=O)/C(=C/c3ccccn3)C2SC1 (stereo not shown) [Compound 6e, Sodium salt of ^7-[(Z)-(2′-pyridyl)methylene] cephalosporanic acid]
[1]
  IC50: > 20000 nM
[2]
  IC50: > 20000 nM
[3]
  IC50: > 20000 nM

## CC(=O)OCC1=C(C(=O)O)N2C(=O)C(=C(Br)Br)C2S(=O)(=O)C1 (stereo not shown) [Compound 7a, Sodium salt of 7-[dibromomethylene] cephalosporanic acid sulfone]
[1]
  IC50: > 20000 nM
[2]
  IC50: > 20000 nM
[3]
  IC50: > 20000 nM

## CC(=O)OCC1=C(C(=O)O)N2C(=O)C(=C(Cl)Cl)C2S(=O)(=O)C1 (stereo not shown) [Compound 7b, Sodium salt of 7-[dichloromethylene] cephalosporanic acid sulfone]
[1]
  IC50: 8300 nM
[2]
  IC50: > 20000 nM
[3]
  IC50: > 20000 nM

## CC(=O)OCC1=C(C(=O)[O-])N2C(=O)/C(=C/c3ccccn3)C2S(=O)(=O)C1.[Na+] (stereo not shown) [Compound 7e, Sodium salt of 7-[(Z)-(2′-pyridyl)methylene] cephalosporanic acid sulfone]
[1]
  IC50: 800 nM
[2]
  IC50: 25 nM
[3]
  fold increase in activity of sulfone over its sulfide 6e: 1300 fold
  fold increase in activity over tazobactam: 20 fold
  IC50: 25 nM

## CC(=O)OCC1=C(C(=O)O)N2C(=O)/C(=C\Br)C2SC1 (stereo not shown) [Compound 6l, Sodium salt of 7-[(E)-bromomethylene] cephalosporanic acid]
[1]
  IC50: > 20000 nM
[2]
  IC50: > 20000 nM
[3]
  IC50: > 20000 nM

## CC(=O)OCC1=C(C(=O)O)N2C(=O)/C(=C/CO)C2S(=O)(=O)C1 (stereo not shown) [Compound 7j, Sodium salt of 7-[(Z)-hydroxymethylmethylene] cephalosporanic acid sulfone]
[1]
  IC50: > 20000 nM
[2]
  IC50: > 20000 nM
[3]
  IC50: > 20000 nM

## CC(=O)OCC1=C(C(=O)O)N2C(=O)C(=C(Cl)Cl)C2SC1 (stereo not shown) [Compound 6b, Sodium salt of 7-[dichloromethylene] cephalosporanic acid]
[1]
  IC50: > 20000 nM
[2]
  IC50: > 20000 nM
[3]
  IC50: > 20000 nM

## CC(=O)OCC1=C(C(=O)O)N2C(=O)/C(=C\c3ccccc3)C2S(=O)(=O)C1 (stereo not shown) [Compound 7c, Sodium salt of 7-[(E)-benzylidene] cephalosporanic acid sulfone]
[1]
  IC50: > 20000 nM
[2]
  IC50: > 20000 nM
[3]
  IC50: > 20000 nM

## CC(=O)OCC1=C(C(=O)O)N2C(=O)C(=C(Br)Br)C2SC1 (stereo not shown) [Compound 6a, Sodium salt of 7-[dibromomethylene] cephalosporanic acid]
[1]
  IC50: > 20000 nM
[2]
  IC50: > 20000 nM
[3]
  IC50: > 20000 nM

## CC(=O)OCC1=C(C(=O)O)N2C(=O)/C(=C/C(C)(C)C)C2S(=O)(=O)C1 (stereo not shown) [Compound 7m, Sodium salt of 7-[(Z)-t-butylmethylene] cephalosporanic acid sulfone]
[1]
  IC50: > 20000 nM
[2]
  IC50: > 20000 nM
[3]
  IC50: > 20000 nM

From patent US6599892B2, “7-alkylidene cephalosporanic acid derivatives and methods of using the same” (Research Corporation Technologies, Inc., priority 1994, dated 2003)
